Assay results published in patent US20260272907A1, “Therapeutic Tyrosine Kinase Inhibitors for Multiple Sclerosis” (Principia Biopharma Inc., priority 2022, published 2026).

Test system: patients with relapsing multiple sclerosis
Assay: Phase 2b dose-finding study: adverse events (TEAEs, SAEs, AESIs), safety population
Settings: for Adverse event: Accidental overdose / Adverse event: Alanine aminotransferase increased / Adverse event: Alopecia / Adverse event: Back pain / Adverse event: Gastroenteritis / Adverse event: Headache / Adverse event: Muscle spasticity / Adverse event: Nasopharyngitis / Adverse event: Oropharyngeal pain / Adverse event: Peripheral edema / Adverse event: Respiratory tract infection / Adverse event: Upper respiratory tract infection: 12 weeks treatment
[1] = BTKi 5 mg (n = 33), Weeks 1 to 12
[2] = BTKi 15 mg (N = 16), Weeks 1 to 4
[3] = BTKi 15 mg (n = 32), Weeks 1 to 12
[4] = BTKi 30 mg (N = 16), Weeks 1 to 4
[5] = BTKi 30 mg (n = 33), Weeks 1 to 12
[6] = BTKi 60 mg (N = 16), Weeks 1 to 4
[7] = BTKi 60 mg (n = 32), Weeks 1 to 12
[8] = BTKi 5 (N = 32), BTK inhibitor treatment period, safety population
[9] = BTKi 15 (N = 32), BTK inhibitor treatment period, safety population
[10] = BTKi 30 (N = 33), BTK inhibitor treatment period, safety population
[11] = BTKi 60 (N = 33), BTK inhibitor treatment period, safety population

## C=CC(=O)N1CCC[C@@H](n2c(=O)n(-c3ccc(Oc4ccccc4)cc3)c3c(N)nccc32)C1 [the BTK inhibitor, (R)-1-(1-acryloylpiperidin-3-yl)-4-amino-3-(4-phenoxyphenyl)-1H-imidazo[4,5-c]pyridin-2(3H)-one]
[1]
  Any treatment-related AE: 5 (15.2) n (%)
  Serious AE: 0 n (%)
[2]
  AE leading to death: 0
  AE leading to study discontinuation: 0
  Any AE leading to study treatment discontinuation: 0
  Any treatment-related AE: 0
  Serious AE: 0
BTKi 15 mg (n = 32)
  Adverse event: Accidental overdose: 0%
  Adverse event: Alanine aminotransferase increased: 0%
  Adverse event: Alopecia: 1 (3%)
  Adverse event: Back pain: 1 (3%)
  Adverse event: Gastroenteritis: 0%
  Adverse event: Headache: 3 (9%)
  Adverse event: Muscle spasticity: 0%
  Adverse event: Nasopharyngitis: 0%
  Adverse event: Oropharyngeal pain: 0%
  Adverse event: Peripheral edema: 0%
  Adverse event: Respiratory tract infection: 1 (3%)
  Adverse event: Upper respiratory tract infection: 2 (6%)
[3]
  AE leading to death: 0 n (%)
  AE leading to study discontinuation: 0 n (%)
  Any AE (4 weeks vs. placebo 12 weeks): 17 (53.1) n (%)
  Any AE leading to study treatment discontinuation: 0 n (%)
  Any treatment-related AE: 1 (3.1) n (%)
  Serious AE: 0 n (%)
[4]
  AE leading to death: 0
  AE leading to study discontinuation: 0
  Any AE leading to study treatment discontinuation: 0
  Any treatment-related AE: 0
  Serious AE: 0
BTKi 30 mg (n = 33)
  Adverse event: Accidental overdose: 0%
  Adverse event: Alanine aminotransferase increased: 1 (3%)
  Adverse event: Alopecia: 0%
  Adverse event: Back pain: 2 (6%)
  Adverse event: Gastroenteritis: 0%
  Adverse event: Headache: 1 (3%)
  Adverse event: Muscle spasticity: 1 (3%)
  Adverse event: Nasopharyngitis: 1 (3%)
  Adverse event: Oropharyngeal pain: 1 (3%)
  Adverse event: Peripheral edema: 0%
  Adverse event: Respiratory tract infection: 1 (3%)
  Adverse event: Upper respiratory tract infection: 1 (3%)
[5]
  AE leading to death: 0 n (%)
  AE leading to study discontinuation: 0 n (%)
  Any AE (4 weeks vs. placebo 12 weeks): 18 (54.5) n (%)
  Any AE leading to study treatment discontinuation: 0 n (%)
  Any treatment-related AE: 4 (12.1) n (%)
  Serious AE: 0 n (%)
[6]
  AE leading to death: 0
  AE leading to study discontinuation: 0
  Any AE leading to study treatment discontinuation: 0
  Serious AE: 0
BTKi 60 mg (n = 32)
  Adverse event: Accidental overdose: 3 (9%)
  Adverse event: Alanine aminotransferase increased: 1 (3%)
  Adverse event: Alopecia: 1 (3%)
  Adverse event: Back pain: 0%
  Adverse event: Gastroenteritis: 2 (6%)
  Adverse event: Headache: 4 (13%)
  Adverse event: Muscle spasticity: 2 (6%)
  Adverse event: Nasopharyngitis: 3 (9%)
  Adverse event: Oropharyngeal pain: 1 (3%)
  Adverse event: Peripheral edema: 2 (6%)
  Adverse event: Respiratory tract infection: 1 (3%)
  Adverse event: Upper respiratory tract infection: 1 (3%)
[7]
  AE leading to death: 0 n (%)
  AE leading to study discontinuation: 0 n (%)
  Any AE (4 weeks vs. placebo 12 weeks): 16 (50.0) n (%)
  Any AE leading to study treatment discontinuation: 0 n (%)
  Any treatment-related AE: 7 (21.9) n (%)
  Serious AE: 1 (3.1) n (%)
[8]
  Participants with any TEAE: 16 (50.0) n (%)
  Participants with any TEAE leading to death: 0 n (%)
  Participants with any TEAE leading to study treatment discontinuation: 0 n (%)
  Participants with any severe TEAE: 0 n (%)
  Participants with any treatment emergent SAE: 0 n (%)
  Participants with any treatment-related TEAE: 6 (18.8) n (%)
  Participants with study discontinuation due to any TEAE: 0 n (%)
  Participants with treatment emergent SAE(s): Any class: 0 n(%)
  Participants with treatment emergent SAE(s): Multiple sclerosis relapse: 0 n(%)
  Participants with treatment emergent SAE(s): NERVOUS SYSTEM DISORDERS: 0 n(%)
BTKi 5 (N = 32), Weeks 1 to 4
  Participants with any TEAE leading to death: 0 n (%)
  Participants with any TEAE leading to study treatment discontinuation: 0 n (%)
  Participants with any severe TEAE: 0 n (%)
  Participants with any treatment emergent SAE: 0 n (%)
  Participants with study discontinuation due to any TEAE: 0 n (%)
[9]
  Participants with any TEAE: 18 (56.3) n (%)
  Participants with any TEAE leading to death: 0 n (%)
  Participants with any TEAE leading to study treatment discontinuation: 0 n (%)
  Participants with any severe TEAE: 0 n (%)
  Participants with any treatment emergent SAE: 0 n (%)
  Participants with any treatment-related TEAE: 3 (9.4) n (%)
  Participants with study discontinuation due to any TEAE: 0 n (%)
  Participants with treatment emergent SAE(s): Any class: 0 n(%)
  Participants with treatment emergent SAE(s): Multiple sclerosis relapse: 0 n(%)
  Participants with treatment emergent SAE(s): NERVOUS SYSTEM DISORDERS: 0 n(%)
BTKi 15 (N = 32), Weeks 1 to 4
  Participants with any TEAE leading to death: 0 n (%)
  Participants with any TEAE leading to study treatment discontinuation: 0 n (%)
  Participants with any severe TEAE: 0 n (%)
  Participants with any treatment emergent SAE: 0 n (%)
  Participants with study discontinuation due to any TEAE: 0 n (%)
[10]
  Participants with any TEAE: 17 (51.5) n (%)
  Participants with any TEAE leading to death: 0 n (%)
  Participants with any TEAE leading to study treatment discontinuation: 0 n (%)
  Participants with any severe TEAE: 1 (3.0) n (%)
  Participants with any treatment emergent SAE: 1 (3.0) n (%)
  Participants with any treatment-related TEAE: 4 (12.1) n (%)
  Participants with study discontinuation due to any TEAE: 0 n (%)
  Participants with treatment emergent SAE(s): Any class: 1 (3.0) n(%)
  Participants with treatment emergent SAE(s): Multiple sclerosis relapse: 1 (3.0) n(%)
  Participants with treatment emergent SAE(s): NERVOUS SYSTEM DISORDERS: 1 (3.0) n(%)
BTKi 30 (N = 33), Weeks 1 to 4
  Participants with any TEAE leading to death: 0 n (%)
  Participants with any TEAE leading to study treatment discontinuation: 0 n (%)
  Participants with any severe TEAE: 0 n (%)
  Participants with any treatment emergent SAE: 0 n (%)
  Participants with study discontinuation due to any TEAE: 0 n (%)
[11]
  Participants with any TEAE leading to death: 0 n (%)
  Participants with any TEAE leading to study treatment discontinuation: 0 n (%)
  Participants with any severe TEAE: 0 n (%)
  Participants with any treatment emergent SAE: 0 n (%)
  Participants with any treatment-related TEAE: 2 (6.1) n (%)
  Participants with study discontinuation due to any TEAE: 0 n (%)
  Participants with treatment emergent SAE(s): Any class: 0 n(%)
  Participants with treatment emergent SAE(s): Multiple sclerosis relapse: 0 n(%)
  Participants with treatment emergent SAE(s): NERVOUS SYSTEM DISORDERS: 0 n(%)
BTKi 60 (N = 33), Weeks 1 to 4
  Participants with any TEAE leading to death: 0 n (%)
  Participants with any TEAE leading to study treatment discontinuation: 0 n (%)
  Participants with any severe TEAE: 0 n (%)
  Participants with any treatment emergent SAE: 0 n (%)
  Participants with study discontinuation due to any TEAE: 0 n (%)
All dose groups
  AESIs (alanine aminotransferase increased >3×ULN) reported in the study: two
  TEAEs leading to permanent treatment discontinuation: no TEAEs leading to permanent treatment discontinuation
In each treatment group (5, 15, 30, 60 mg), Weeks 1 to 4
  Upper respiratory tract infection (TEAE): 1 case
Whole study, all dose groups
  Deaths: No deaths
